In data set [1] the test system is Staphylococcus aureus. Nature of the data set: Bactericidal activity against exponential phase of methicillin-resistant Staphylococcus aureus USA 300 at 1 to 4 times MIC incubated for 2 to 8 hrs by time kill assay. To be noted: time 2-8 hrs. It counts as functional, organism-based.
In data set [2] the test system is Staphylococcus aureus. Kind of data set: Antibiofilm activity against methicillin-resistant Staphylococcus aureus ATCC 33592 in TSB broth assessed as dispersal of glucose-induced biofilm at 8 to 16 ug/ml preincubated with glucose for 48 hrs followed by compound addition and measured after 24 hrs by crystal violet staining based analysis. It counts as functional. The note with it: dose 8-16 µg/ml, at 8 to 16 µg/mL.

Another data set relates to Cell membrane. Nature of the data set: Induction of membrane depolarization in Staphylococcus aureus ATCC 25923 at 2 ug/ml incubated for 1 hr by DiOC23 dye based flow cytometry analysis. The note with it: dose 2.0 µg/ml. The data set is classed as subcellular. A general note: In flow cytometry, cells or beads pass a laser one at a time.
Data set [3] has as its system Staphylococcus aureus. Kind of data set: Bactericidal activity against persister methicillin-resistant Staphylococcus aureus USA 300 at 1 times MIC incubated for 4 hrs by time kill assay. It counts as functional.
Data set [4] has as its system Staphylococcus aureus. Nature of the data set: Inhibition of RNA synthesis in Staphylococcus aureus ATCC 25923 at 0.25 to 8 ug/ml by [5-3H]-uridine incorporation assay. The data set is classed as functional, organism-based. To be noted: dose 0.25-8 µg/ml.
Data set [5] relates to Staphylococcus aureus. Nature of the data set: Synergistic antibiofilm activity against methicillin-resistant Staphylococcus aureus USA 300 in TSB broth assessed as dispersal of glucose-induced biofilm at 1 ug/ml preincubated with glucose for 48 hrs followed by compound addition and further incubated for 24 hrs in presence of Nitroxoline by crystal violet staining based assay. It counts as functional. To be noted: dose 1 µg/ml.

The subject of data set [6] is Enterococcus faecalis. Nature of the data set: Antibacterial activity against Enterococcus faecalis ATCC 29212 assessed as reduction in visible bacterial growth incubated for 18 to 20 hrs by CLSI based broth microdilution analysis. It counts as functional. To be noted: time 18-20 hrs. (Broth dilution looks for growth in wells or tubes with falling amounts of substance.)

In a further data set the test system is Erythrocyte. Nature of the data set: Hemolytic activity in sheep RBC at 10 times MIC incubated for 30 mins by spectrophotometry. It counts as toxicity, cell-based, Ovis aries. To be noted: 0.5 h.
For data set [7], the system named is Staphylococcus aureus. Kind of data set: Antibacterial activity against methicillin-resistant Staphylococcus aureus USA 300 assessed as reduction in visible bacterial growth incubated for 18 to 20 hrs by CLSI based broth microdilution analysis. The note with it: time 18-20 hrs. It counts as functional.
The subject of data set [8] is Enterococcus faecalis. Kind of data set: Synergistic antibiofilm activity against vancomycin-resistant Enterococcus faecalis ATCC 51575 in TSB broth assessed as dispersal of glucose-induced biofilm by measuring Nitroxoline MBEC preincubated with glucose for 48 hrs followed by compound addition and measured after 24 hrs by crystal violet staining based checkerboard assay. The data set is classed as functional.

The test system of data set [9] is Staphylococcus aureus. Kind of data set: Antibacterial activity against methicillin-resistant Staphylococcus aureus USA 300 (ARLG 1663) assessed as reduction in visible bacterial growth incubated for 18 to 20 hrs by CLSI based broth microdilution analysis. It counts as functional. To be noted: time 18-20 hrs.
For data set [10], the system named is Staphylococcus aureus. Kind of data set: Synergistic antibiofilm activity against methicillin-resistant Staphylococcus aureus USA 300 in TSB broth assessed as dispersal of glucose-induced biofilm at 4 ug/ml preincubated with glucose for 48 hrs followed by compound addition and further incubated for 24 hrs in presence of Bithionol by crystal violet staining based assay. To be noted: dose 4 µg/ml. It counts as functional.

Data set [11] has as its system Enterococcus faecalis. Nature of the data set: Synergistic antibiofilm activity against vancomycin-resistant Enterococcus faecalis ATCC 51575 in TSB broth assessed as dispersal of glucose-induced biofilm preincubated with glucose for 48 hrs followed by compound addition and further incubated for 24 hrs in presence of Bithionol by crystal violet staining based checkerboard assay. The data set is classed as functional.

The text below walks through data of ChEMBL document CHEMBL5113477, “Membrane acting Povarov-Doebner derived compounds potently disperse preformed multidrug resistant Gram-positive bacterial biofilms” (Eur J Med Chem, 2022).

Converted amounts (≈) assume the structure as drawn. The source made the active and inactive calls.

For orientation: MBC means the smallest concentration meeting the test's criterion for killing. As usually defined, the MIC is the lowest concentration that inhibits growth of the organism. On to `Oc1ccc([C@@H]2Nc3ccc(S(F)(F)(F)(F)F)cc3[C@H]3[C@@H]4CC[C@@H](C4)[C@H]32)cc1`, for which the outcome in the data set with Staphylococcus aureus [1] and in the data set on Cell membrane was Active. In addition, the Activity is 70% in the data set on Staphylococcus aureus [2]; 100% in the data set on Staphylococcus aureus [3]; above 80% in the data set on Staphylococcus aureus [5]; “Non-Toxic” in the data set with Erythrocyte; above 80% in the data set with Staphylococcus aureus [10]. Also, the inhibition result in the data set with Staphylococcus aureus [4] is “Active”. Moreover, the minimal bactericidal concentration (MBC) in the data set on Enterococcus faecalis [6], in the data set on Staphylococcus aureus [7] and in the data set with Staphylococcus aureus [9] was 2 mg/L (≈ 4.79 µM) each time. Besides, the figures for the minimal inhibitory concentration (MIC) in the data set on Enterococcus faecalis [6], in the data set with Staphylococcus aureus [7] and in the data set with Staphylococcus aureus [9] were 2 mg/L (≈ 4.79 µM), 1 mg/L (≈ 2.4 µM) and 0.5 mg/L (≈ 1.2 µM), respectively. Besides, the MBEC with Enterococcus faecalis [8] and with Enterococcus faecalis [11] was 2 µg/mL throughout.
